According to ChEMBL document CHEMBL5678818, “Discovery of potent SOS1 inhibitors that block RAS activation via disruption of the RAS-SOS1 interaction” (Proc Natl Acad Sci U S A, 2019):

Legend:
[1] = biological target: T1, Casein kinase I isoform alpha-like (Homo sapiens) (UniProt Q8N752); assay: Inhibition of CSNK1A1L (unknown origin) assessed as residual activity at 1000 nM by KINOMEscan analysis relative to control
T1 sequence (whole entry): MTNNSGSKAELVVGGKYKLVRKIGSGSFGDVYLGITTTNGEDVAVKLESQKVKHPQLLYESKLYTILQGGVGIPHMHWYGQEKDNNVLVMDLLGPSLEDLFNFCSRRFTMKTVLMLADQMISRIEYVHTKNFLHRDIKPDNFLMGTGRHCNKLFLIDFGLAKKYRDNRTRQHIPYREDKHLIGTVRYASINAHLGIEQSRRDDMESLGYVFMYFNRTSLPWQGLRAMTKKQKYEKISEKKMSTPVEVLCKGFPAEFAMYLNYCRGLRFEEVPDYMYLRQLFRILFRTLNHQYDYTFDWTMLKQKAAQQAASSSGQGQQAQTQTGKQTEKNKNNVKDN

[2] = biological target: Dual specificity protein kinase CLK2 (Homo sapiens) (UniProt P49760); assay: Inhibition of CLK2 (unknown origin) assessed as residual activity at 1000 nM by KINOMEscan analysis relative to control
Chain of Dual specificity protein kinase CLK2 (Homo sapiens) (P49760 whole entry, looked up): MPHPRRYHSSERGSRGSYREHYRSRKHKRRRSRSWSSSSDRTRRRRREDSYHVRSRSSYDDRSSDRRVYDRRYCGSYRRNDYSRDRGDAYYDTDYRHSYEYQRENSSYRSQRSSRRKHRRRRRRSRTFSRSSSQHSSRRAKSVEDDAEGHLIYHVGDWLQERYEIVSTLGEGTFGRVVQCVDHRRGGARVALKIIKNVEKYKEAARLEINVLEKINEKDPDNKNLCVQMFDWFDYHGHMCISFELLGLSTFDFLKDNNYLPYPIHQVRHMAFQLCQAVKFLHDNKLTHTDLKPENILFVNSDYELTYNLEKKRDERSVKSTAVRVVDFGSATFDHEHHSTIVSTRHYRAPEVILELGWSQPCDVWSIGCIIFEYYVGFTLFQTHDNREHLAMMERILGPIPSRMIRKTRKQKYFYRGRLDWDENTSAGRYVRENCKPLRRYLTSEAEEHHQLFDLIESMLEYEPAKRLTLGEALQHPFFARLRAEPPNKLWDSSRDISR

[3] = biological target: Cyclin-dependent kinase 17 (Homo sapiens) (UniProt Q00537); assay: Inhibition of PCTK2 (unknown origin) assessed as residual activity at 1000 nM by KINOMEscan analysis relative to control
Chain of Cyclin-dependent kinase 17 (Homo sapiens) (Q00537 whole entry, looked up): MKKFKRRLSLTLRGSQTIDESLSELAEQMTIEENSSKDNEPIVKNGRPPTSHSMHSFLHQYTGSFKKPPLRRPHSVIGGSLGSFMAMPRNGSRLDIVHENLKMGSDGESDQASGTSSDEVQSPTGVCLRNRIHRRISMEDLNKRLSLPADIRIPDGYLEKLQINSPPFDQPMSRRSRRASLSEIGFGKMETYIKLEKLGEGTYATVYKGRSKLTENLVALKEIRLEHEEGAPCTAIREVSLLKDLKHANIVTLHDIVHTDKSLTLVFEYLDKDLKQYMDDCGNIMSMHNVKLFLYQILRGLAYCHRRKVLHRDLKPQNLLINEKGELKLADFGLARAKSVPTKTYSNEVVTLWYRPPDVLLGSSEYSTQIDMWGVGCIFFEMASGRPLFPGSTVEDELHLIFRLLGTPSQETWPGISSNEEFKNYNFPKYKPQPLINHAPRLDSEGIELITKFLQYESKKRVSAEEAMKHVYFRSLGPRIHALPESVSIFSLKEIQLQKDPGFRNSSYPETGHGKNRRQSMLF

[4] = biological target: BDNF/NT-3 growth factors receptor (Homo sapiens) (UniProt Q16620); assay: Inhibition of TRKB (unknown origin) assessed as residual activity at 1000 nM by KINOMEscan analysis relative to control
Chain of BDNF/NT-3 growth factors receptor (Homo sapiens) (Q16620 32-822 limits assumed): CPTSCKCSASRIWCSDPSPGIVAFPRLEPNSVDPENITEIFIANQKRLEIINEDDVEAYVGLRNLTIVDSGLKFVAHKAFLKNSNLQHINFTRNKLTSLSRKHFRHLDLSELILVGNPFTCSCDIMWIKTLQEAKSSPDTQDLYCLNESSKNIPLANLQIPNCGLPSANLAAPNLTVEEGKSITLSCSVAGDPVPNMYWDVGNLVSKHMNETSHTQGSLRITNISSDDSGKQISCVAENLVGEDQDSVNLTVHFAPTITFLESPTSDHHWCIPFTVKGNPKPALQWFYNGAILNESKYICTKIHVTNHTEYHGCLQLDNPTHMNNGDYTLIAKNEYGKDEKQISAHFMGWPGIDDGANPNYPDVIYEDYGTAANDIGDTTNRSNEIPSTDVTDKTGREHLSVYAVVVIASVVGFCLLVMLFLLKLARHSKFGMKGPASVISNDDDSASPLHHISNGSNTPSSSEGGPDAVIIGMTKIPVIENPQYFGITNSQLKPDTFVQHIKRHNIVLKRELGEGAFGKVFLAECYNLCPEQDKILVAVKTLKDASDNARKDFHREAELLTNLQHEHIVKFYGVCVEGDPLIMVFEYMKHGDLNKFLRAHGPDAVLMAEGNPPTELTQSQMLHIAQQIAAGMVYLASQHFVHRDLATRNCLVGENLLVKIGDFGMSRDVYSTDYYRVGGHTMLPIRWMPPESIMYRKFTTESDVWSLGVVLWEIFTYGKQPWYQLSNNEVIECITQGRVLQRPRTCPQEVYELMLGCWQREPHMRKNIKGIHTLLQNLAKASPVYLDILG

[5] = biological target: Epidermal growth factor receptor (Homo sapiens, UniProt P00533); assay: Inhibition of EGFR (unknown origin) assessed as residual activity at 1000 nM by KINOMEscan analysis relative to control
Chain of Epidermal growth factor receptor (P00533 whole entry): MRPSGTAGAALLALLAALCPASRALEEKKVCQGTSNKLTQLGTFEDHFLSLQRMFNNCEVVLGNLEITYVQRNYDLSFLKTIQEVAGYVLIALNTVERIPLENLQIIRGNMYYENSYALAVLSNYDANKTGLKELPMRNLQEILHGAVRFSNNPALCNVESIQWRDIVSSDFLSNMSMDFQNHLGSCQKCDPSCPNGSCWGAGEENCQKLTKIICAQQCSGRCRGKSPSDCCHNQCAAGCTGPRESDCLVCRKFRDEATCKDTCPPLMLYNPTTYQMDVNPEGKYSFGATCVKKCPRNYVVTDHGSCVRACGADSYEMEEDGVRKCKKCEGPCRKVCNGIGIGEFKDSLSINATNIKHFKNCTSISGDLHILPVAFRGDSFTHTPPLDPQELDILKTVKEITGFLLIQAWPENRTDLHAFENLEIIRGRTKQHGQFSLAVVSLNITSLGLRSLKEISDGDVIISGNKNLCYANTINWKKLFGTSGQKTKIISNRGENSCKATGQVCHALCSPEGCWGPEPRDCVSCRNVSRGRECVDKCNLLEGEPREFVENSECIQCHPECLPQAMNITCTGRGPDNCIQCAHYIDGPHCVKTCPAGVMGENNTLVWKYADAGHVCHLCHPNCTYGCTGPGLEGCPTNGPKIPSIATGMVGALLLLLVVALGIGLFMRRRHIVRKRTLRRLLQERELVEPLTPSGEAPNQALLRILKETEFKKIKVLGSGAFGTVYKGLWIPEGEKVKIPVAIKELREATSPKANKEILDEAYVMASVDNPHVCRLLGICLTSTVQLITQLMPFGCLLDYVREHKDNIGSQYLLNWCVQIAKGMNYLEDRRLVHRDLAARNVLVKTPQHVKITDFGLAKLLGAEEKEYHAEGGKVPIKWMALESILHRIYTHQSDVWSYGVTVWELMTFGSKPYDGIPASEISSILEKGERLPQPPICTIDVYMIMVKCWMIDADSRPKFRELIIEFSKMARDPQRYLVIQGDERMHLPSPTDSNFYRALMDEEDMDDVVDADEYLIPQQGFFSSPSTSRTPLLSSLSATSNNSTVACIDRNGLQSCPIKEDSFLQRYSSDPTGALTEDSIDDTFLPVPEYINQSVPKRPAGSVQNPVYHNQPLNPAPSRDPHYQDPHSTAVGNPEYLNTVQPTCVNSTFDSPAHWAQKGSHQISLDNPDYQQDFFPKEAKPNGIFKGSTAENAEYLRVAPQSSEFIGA

[6] = biological target: Tyrosine-protein kinase Fgr (Homo sapiens) (UniProt P09769); assay: Inhibition of FGR (unknown origin) assessed as residual activity at 1000 nM by KINOMEscan analysis relative to control
Chain of Tyrosine-protein kinase Fgr (Homo sapiens) (P09769 2-529 limits assumed): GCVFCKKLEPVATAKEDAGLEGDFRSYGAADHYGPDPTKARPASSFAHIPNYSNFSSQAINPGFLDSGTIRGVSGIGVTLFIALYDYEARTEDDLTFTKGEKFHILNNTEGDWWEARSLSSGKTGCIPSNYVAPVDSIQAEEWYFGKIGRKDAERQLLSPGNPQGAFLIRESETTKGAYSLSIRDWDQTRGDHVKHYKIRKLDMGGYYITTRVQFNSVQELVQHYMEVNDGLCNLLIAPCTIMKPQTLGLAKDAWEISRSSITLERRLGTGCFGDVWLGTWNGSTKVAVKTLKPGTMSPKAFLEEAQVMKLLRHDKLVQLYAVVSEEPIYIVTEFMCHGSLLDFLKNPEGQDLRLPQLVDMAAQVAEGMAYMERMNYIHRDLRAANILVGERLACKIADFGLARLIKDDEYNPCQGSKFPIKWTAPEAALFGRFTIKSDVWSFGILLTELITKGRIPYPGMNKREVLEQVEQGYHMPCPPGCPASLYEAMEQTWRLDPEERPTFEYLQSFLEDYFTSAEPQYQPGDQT

[7] = biological target: Homeodomain-interacting protein kinase 3 (Homo sapiens) (UniProt Q9H422); assay: Inhibition of HIPK3 (unknown origin) assessed as residual activity at 1000 nM by KINOMEscan analysis relative to control
[8] = biological target: Activin receptor type-1-like (Homo sapiens) (UniProt P37023); assay: Inhibition of ACVRL1 (unknown origin) assessed as residual activity at 1000 nM by KINOMEscan analysis relative to control
[9] = biological target: T2, Protein kinase C iota type (Homo sapiens) (UniProt P41743); assay: Inhibition of PRKCI (unknown origin) assessed as residual activity at 1000 nM by KINOMEscan analysis relative to control
T2 sequence (whole entry): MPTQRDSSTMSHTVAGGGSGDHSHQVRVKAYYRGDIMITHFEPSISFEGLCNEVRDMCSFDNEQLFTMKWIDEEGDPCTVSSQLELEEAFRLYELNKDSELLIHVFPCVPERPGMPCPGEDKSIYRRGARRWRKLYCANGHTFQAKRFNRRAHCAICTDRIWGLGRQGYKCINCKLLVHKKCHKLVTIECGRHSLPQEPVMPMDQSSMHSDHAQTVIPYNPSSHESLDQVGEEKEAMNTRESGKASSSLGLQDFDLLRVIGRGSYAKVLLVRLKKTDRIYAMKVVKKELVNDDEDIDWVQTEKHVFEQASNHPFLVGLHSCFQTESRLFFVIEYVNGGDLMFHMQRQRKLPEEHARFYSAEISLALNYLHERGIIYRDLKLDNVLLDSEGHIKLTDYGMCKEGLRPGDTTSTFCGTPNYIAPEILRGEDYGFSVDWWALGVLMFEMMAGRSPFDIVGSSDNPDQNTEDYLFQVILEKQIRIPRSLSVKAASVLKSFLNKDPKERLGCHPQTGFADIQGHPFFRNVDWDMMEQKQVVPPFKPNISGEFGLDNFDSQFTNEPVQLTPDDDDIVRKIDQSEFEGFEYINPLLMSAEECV

[10] = biological target: Hepatocyte growth factor receptor (Homo sapiens) (UniProt P08581); assay: Inhibition of MET (unknown origin) assessed as residual activity at 1000 nM by KINOMEscan analysis relative to control
[11] = biological target: T3, Mitogen-activated protein kinase kinase kinase 13 (Homo sapiens) (UniProt O43283); assay: Inhibition of LZK (unknown origin) assessed as residual activity at 1000 nM by KINOMEscan analysis relative to control
T3 sequence (whole entry): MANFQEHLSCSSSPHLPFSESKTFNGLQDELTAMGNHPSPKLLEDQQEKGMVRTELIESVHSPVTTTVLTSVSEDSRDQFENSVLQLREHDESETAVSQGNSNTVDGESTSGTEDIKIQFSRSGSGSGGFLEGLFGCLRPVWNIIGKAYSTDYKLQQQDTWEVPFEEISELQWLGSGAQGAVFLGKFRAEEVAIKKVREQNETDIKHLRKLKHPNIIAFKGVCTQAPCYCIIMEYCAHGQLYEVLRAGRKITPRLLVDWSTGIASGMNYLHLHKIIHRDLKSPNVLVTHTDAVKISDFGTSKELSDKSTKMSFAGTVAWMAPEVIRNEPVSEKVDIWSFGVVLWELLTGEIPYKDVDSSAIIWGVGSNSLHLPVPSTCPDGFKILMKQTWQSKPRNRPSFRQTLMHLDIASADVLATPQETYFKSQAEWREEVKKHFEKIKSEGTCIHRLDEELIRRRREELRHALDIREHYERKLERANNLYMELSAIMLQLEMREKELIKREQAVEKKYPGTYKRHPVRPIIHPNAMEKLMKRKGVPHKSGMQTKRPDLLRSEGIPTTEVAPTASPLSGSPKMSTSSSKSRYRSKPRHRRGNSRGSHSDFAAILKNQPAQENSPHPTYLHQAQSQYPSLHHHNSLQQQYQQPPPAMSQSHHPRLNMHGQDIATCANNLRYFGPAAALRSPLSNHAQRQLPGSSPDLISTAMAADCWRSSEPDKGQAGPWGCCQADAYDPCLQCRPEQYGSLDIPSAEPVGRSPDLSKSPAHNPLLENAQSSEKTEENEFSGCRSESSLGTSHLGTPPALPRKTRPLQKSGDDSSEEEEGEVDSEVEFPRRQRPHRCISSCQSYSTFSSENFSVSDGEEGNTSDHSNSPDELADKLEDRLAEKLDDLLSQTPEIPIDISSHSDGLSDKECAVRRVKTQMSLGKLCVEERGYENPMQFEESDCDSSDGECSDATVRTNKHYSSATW

[12] = biological target: Serine/threonine-protein kinase 24 (Homo sapiens) (UniProt Q9Y6E0); assay: Inhibition of MST3 (unknown origin) assessed as residual activity at 1000 nM by KINOMEscan analysis relative to control
Chain of Serine/threonine-protein kinase 24 (Homo sapiens) (Q9Y6E0 whole entry, looked up): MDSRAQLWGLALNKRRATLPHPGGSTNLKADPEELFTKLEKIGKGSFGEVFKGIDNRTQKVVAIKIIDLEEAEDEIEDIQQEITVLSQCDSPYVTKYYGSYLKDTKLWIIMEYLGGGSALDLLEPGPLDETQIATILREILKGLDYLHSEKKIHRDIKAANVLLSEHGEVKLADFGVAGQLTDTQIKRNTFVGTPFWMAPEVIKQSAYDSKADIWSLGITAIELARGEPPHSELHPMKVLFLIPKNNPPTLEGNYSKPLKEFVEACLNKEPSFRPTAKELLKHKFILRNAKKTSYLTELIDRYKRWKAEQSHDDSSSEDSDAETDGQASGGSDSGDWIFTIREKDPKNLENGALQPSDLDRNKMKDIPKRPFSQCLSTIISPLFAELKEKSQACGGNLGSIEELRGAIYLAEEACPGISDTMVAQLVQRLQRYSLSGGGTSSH

[13] = biological target: Cyclin-dependent kinase 11B (Homo sapiens) (UniProt P21127); assay: Inhibition of CDK11 (unknown origin) assessed as residual activity at 1000 nM by KINOMEscan analysis relative to control
Chain of Cyclin-dependent kinase 11B (Homo sapiens) (P21127 whole entry): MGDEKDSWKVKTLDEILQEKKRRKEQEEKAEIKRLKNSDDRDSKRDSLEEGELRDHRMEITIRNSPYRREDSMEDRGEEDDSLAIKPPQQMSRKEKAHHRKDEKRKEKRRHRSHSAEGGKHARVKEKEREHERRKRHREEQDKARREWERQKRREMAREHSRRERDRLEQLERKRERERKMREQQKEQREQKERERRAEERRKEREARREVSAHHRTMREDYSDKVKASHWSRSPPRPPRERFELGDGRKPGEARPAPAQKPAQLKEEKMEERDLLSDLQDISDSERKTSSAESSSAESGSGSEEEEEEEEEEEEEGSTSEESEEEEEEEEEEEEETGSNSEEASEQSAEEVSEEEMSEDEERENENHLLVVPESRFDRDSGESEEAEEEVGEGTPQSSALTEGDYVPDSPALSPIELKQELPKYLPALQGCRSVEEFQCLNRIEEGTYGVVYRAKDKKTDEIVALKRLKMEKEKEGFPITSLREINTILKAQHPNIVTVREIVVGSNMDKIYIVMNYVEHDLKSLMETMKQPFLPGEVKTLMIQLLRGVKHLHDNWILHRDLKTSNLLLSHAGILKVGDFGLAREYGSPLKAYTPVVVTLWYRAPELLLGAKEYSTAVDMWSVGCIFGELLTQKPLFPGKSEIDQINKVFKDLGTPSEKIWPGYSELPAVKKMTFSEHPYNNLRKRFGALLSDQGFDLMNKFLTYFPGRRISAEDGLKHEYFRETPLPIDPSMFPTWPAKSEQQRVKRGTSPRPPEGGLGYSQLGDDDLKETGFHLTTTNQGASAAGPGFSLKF

Structure (SMILES)	Activity [1]	Activity [2]	Activity [3]	Activity [4]	Activity [5]	Activity [6]	Activity [7]	Activity [8]	Activity [9]	Activity [10]	Activity [11]	Activity [12]	Activity [13]
COc1cc2nc(C)nc(N[C@H](C)c3cccc(-c4cn[nH]c4)c3)c2cc1OC	65%	78%	83%	98%	88%	48%	69%	99%	61%	97%	94%	61%	100%
COc1cc2ncnc(N[C@H](C)c3cccc4ccccc34)c2cc1OC	100%	100%	100%	100%	3.2%	95%	88%	100%	100%	100%	99%	100%	84%
